# System: rats with hyperuricemia
# Assay: Efficacy test in potassium oxonate-induced hyperuricemia rats (serum UA, BUN, CRE, TG)
# Format: in vivo, Sprague Dawley (SD) rats
# Details: gavage twice each day for 14 days, 300 mg·kg−1 (benzbromarone 20 mg·kg−1), serum 4 h after last administration
# Procedure: SD rats were randomly divided into normal group, hyperuricemia (HUA) model group, positive medicine control group, Astragalus membranaceus group and fungal substance A group based on body mass, with 8 rats in each group. They were used in experiments after one week of adaptive feeding in an animal room. All groups were fed with normal feed. In addition, the normal group was treated with distilled water by gavage. Other groups were treated with 300 mg·kg^−1 of potassium oxonate by gavage each day for modeling. After 1 hour, the positive medicine control group was treated with 20 mg·kg^−1 of benzbromarone by gavage, the Astragalus membranaceus group was treated with 300 mg·kg^−1 of an Astragalus membranaceus powder solution by gavage, and the fungal substance A group was treated with 300 mg·kg^−1 of a fungal substance A solution by gavage. The treatment was performed twice each day for 14 consecutive days, and the dosage was 10 mL·kg^−1. Four hours after administration on the last day, blood samples were taken from the orbital venous plexus of the rats. The blood samples were stored at 4° C. overnight, and then centrifuged to obtain serum, which was for determination of biochemical indexes. After routine calibration and quality control, the contents of uric acid (UA), urea nitrogen (BUN), creatinine (CRE) and triglyceride (TG) in serum were determined by an automatic biochemical analyzer. All test results are expressed in the form of “mean±standard deviation”. Excel and software SPSS17.0 were utilized for calculation and statistics. After all data were tested for normal distribution and homogeneity of variance, single factor analysis of variance was performed. The difference between the two groups was tested by t-test. When P<0.05, the difference was considered to be statistically significant.
compound,measurement,setting,value
CCc1oc2ccccc2c1C(=O)c1cc(Br)c(O)c(Br)c1 [benzbromarone],Serum UA level compared with the model group,FIG. 1,significantly reduced
same,Serum CRE level compared with the model group,FIG. 3,very significantly reduced
same,Serum TG level compared with the model group,FIG. 4,significantly reduced

# Reference: patent publication US11866692B2, “Fermentation fungal substance of astragalus membranaceus paecilomyces cicadae and its use” (BinZhou Medical University, priority 2019, dated 2024)
